This is an account of results in US20060246178A1, “Fermented milk product comprising tripeptide vpp and/or ipp” (priority 2003, published 2006).

The target in one assay is ACE (Homo sapiens, UniProt P12821). The assay can be described thus: ACE inhibition activity assay with fluorogenic substrate Abz-FRK(Dnp)P-OH. The assay is classed as biochemical. To be noted: standard, 5 μM end-concentration.
The target in assay [1] is Angiotensin I Converting Enzyme (ACE) (Homo sapiens, UniProt P12821). To be noted: literature (Kohmura 1990; Nakamura 1995); read-out: IC50, the concentration which results in 50% inhibition of the ACE activity; cited from earlier work.
Sequence of Angiotensin I Converting Enzyme (ACE) (P12821 30-1306, species assumed): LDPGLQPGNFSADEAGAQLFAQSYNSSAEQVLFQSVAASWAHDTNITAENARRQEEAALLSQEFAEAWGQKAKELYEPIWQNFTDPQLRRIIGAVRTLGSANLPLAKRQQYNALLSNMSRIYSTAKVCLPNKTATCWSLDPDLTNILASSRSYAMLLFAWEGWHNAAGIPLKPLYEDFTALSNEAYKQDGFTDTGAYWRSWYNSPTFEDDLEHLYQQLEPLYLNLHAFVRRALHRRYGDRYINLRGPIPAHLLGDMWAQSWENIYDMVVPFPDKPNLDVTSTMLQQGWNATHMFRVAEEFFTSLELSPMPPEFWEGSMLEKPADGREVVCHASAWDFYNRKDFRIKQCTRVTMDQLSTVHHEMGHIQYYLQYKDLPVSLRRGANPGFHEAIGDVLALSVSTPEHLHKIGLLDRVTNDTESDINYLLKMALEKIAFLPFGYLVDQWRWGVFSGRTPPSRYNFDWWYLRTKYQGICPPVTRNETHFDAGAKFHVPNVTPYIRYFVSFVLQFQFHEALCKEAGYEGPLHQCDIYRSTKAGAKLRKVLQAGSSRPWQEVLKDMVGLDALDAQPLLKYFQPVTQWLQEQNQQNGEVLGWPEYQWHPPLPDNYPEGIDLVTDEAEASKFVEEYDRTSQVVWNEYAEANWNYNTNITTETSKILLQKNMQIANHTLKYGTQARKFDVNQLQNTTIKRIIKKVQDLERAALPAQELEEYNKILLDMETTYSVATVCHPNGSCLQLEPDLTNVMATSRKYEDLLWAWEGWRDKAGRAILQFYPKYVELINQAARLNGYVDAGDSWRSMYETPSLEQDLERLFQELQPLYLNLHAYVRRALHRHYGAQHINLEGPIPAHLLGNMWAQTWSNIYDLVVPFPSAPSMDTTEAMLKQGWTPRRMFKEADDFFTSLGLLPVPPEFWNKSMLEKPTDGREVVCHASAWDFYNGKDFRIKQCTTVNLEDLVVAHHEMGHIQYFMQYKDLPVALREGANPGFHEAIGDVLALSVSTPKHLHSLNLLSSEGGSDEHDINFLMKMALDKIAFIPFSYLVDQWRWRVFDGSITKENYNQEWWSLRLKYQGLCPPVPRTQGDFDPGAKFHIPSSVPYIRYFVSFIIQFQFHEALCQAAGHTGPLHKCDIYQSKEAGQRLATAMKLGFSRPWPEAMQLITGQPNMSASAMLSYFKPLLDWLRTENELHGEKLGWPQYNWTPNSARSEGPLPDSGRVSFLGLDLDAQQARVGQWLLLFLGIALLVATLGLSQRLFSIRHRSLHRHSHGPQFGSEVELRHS

Sequence of ACE (P12821 30-1306, species assumed): as above

Turning to Ile-Pro-Pro [IPP], the “inhibition of the ACE activity” value against ACE was “about 30%”. Further, in assay [1], the IC50 is 5 µM.

In the case of Val-Pro-Pro [VPP], the IC50 in assay [1] is 9 µM.
